Source: patent US20240390408A1, “METHOD OF TREATING HEPATITIS C VIRUS IN PATIENTS” (Altesa BioSciences, Inc., priority 2023, published 2024)
Like-named read-outs stand apart in the source and are kept apart here. One block for each compound: values may come before it.

Experiment: Tissue concentrations of Formula I and its metabolites in Göttingen pigs after a single oral or intravenous dose (LC-MS/MS)
Assay type: in vivo
Details: for concentration at 24 h / concentration at 12 h / concentration at 3 h / concentration at 2 h: both sexes, Göttingen, pig (minipig)
Experimental: Tissue samples were collected at 3, 12, and 24 hours post-dose (hpd) for the oral dose and 2 and 12 hpd for the intravenous dose, snap-frozen in liquid nitrogen, and stored at −60 to −90° C. until shipment on dry ice for analysis by LC-MS/MS.
Animals were weighed the day prior to dosing to determine the dosing volume.
The compound of Formula I was dissolved in a PEG 400/DI water (60%/40% v/v) vehicle for oral dosing. For IV dosing the compound of Formula I was dissolved in a PEG 400/Cremophor RH 40/Saline (40%/10%/50% v/v) vehicle and passed through a sterile filter. […] Animals were euthanized by euthanasia solution administration under sedation, if necessary (e.g., acepromazine and or/Telazol®), followed by a Testing Facility SOP approved method to ensure death (e.g., exsanguination). Tissues were collected from two animals per sex per timepoint. Tissue samples, including the brain, heart, kidney, liver, lung, spleen, pancreas, bone marrow, duodenum, jejunum, and colon, were collected in duplicate (approximately 50±20 mg each) and placed into two separate reinforced homogenization tubes per organ (one tissue sample per tube). The exact weight (in milligrams) of each sample was recorded. Tissues samples were flash frozen in liquid nitrogen and stored at −60 to −90° C. until shipment on dry ice for analysis by LC-MS/MS.
Mobile phase A consisted of 50 mM ammonium bicarbonate buffer in HPLC grade water pH 9.8 and mobile phase B consisted of pure acetonitrile. […] Mass spectrometry analysis was performed on a QTrap 7500 Mass Spectrometer (Sciex, Framingham, MA, USA) using negative mode electrospray ionization (ESI) in multiple reaction monitoring (MRM) mode. Data analysis was performed using SCIEX OS Software (Sciex, Framingham, MA, USA).
Tissue samples were collected at 3, 12, and 24 hours post-dose for the oral dose and 2 and 12 hour post-dose for the intravenous dose.

[1] = kidney, single oral dose of Formula I 125 mg/kg, 3 hpd, read-out: Tissue concentration, kidney
[2] = liver, single intravenous bolus of Formula I 25 mg/kg, 2 hpd, read-out: Tissue concentration, liver
[3] = liver, single intravenous bolus of Formula I 25 mg/kg, 12 hpd, read-out: Tissue concentration, liver
[4] = liver, single oral dose of Formula I 125 mg/kg, 12 hpd, read-out: Tissue concentration in Göttingen pig liver (Table 7)
[5] = liver, single oral dose of Formula I 125 mg/kg, 12 hpd, read-out: Tissue concentration, liver
[6] = lung, single intravenous bolus of Formula I 25 mg/kg, 2 hpd, read-out: Tissue concentration, lung
[7] = lung, single intravenous bolus of Formula I 25 mg/kg, 12 hpd, read-out: Tissue concentration, lung
[8] = lung, single oral dose of Formula I 125 mg/kg, 3 hpd, read-out: Tissue concentration, lung
[9] = spleen, single intravenous bolus of Formula I 25 mg/kg, 2 hpd, read-out: Tissue concentration, spleen
[10] = spleen, single intravenous bolus of Formula I 25 mg/kg, 12 hpd, read-out: Tissue concentration, spleen
[11] = single intravenous bolus of Formula I 25 mg/kg, 2 hpd
[12] = single intravenous bolus of Formula I 25 mg/kg, 12 hpd
[13] = single oral dose of Formula I 125 mg/kg, 3 hpd
[14] = single oral dose of Formula I 125 mg/kg, 12 hpd
[15] = single oral dose of Formula I 125 mg/kg, 24 hpd
[16] = kidney, single intravenous bolus of Formula I 25 mg/kg, 2 hpd
[17] = kidney, single oral dose of Formula I 125 mg/kg, 3 hpd
[18] = kidney, single oral dose of Formula I 125 mg/kg, 24 hpd
[19] = liver, single intravenous bolus of Formula I 25 mg/kg, 2 hpd
[20] = liver, single oral dose of Formula I 125 mg/kg, 3 hpd
[21] = liver, single oral dose of Formula I 125 mg/kg, 24 hpd
[22] = lung, single intravenous bolus of Formula I 25 mg/kg, 12 hpd
[23] = lung, single oral dose of Formula I 125 mg/kg, 24 hpd
[24] = spleen, single intravenous bolus of Formula I 25 mg/kg, 12 hpd
[25] = spleen, single oral dose of Formula I 125 mg/kg, 3 hpd
[26] = spleen, single oral dose of Formula I 125 mg/kg, 12 hpd
[27] = spleen, single oral dose of Formula I 125 mg/kg, 24 hpd

Exposure in the lung and spleen, fold lower than liver and kidneys (after PO dosing with Formula I): about 10 fold | concentration at 24 h (125 mg/kg, liver and kidney, 24 hpd after oral dosing with Formula I, read-out: Concentration measurable in the liver and kidney): ~500 nM | concentration at 12 h (kidney, single intravenous bolus of Formula I 25 mg/kg, 12 hpd, read-out: Tissue concentration, kidney): 276 ± 78.1 ng/g | concentration at 3 h [1]: 14100 ± 5050 ng/g | concentration at 12 h (kidney, single oral dose of Formula I 125 mg/kg, 12 hpd, read-out: Tissue concentration, kidney): 824 ± 432 ng/g | concentration at 24 h (kidney, single oral dose of Formula I 125 mg/kg, 24 hpd, read-out: Tissue concentration, kidney): 85.5 ± 18.1 ng/g | concentration at 2 h [2]: 13100 ± 3070 ng/g | concentration at 12 h [3]: 62.7 ± 77.7 ng/g | concentration at 12 h [4]: 1640 ± 924 nM | concentration at 12 h [5]: 582 ± 328 ng/g | concentration at 24 h (liver, single oral dose of Formula I 125 mg/kg, 24 hpd, read-out: Tissue concentration in Göttingen pig liver (Table 7)): 537 ± 229 nM | concentration at 24 h (liver, single oral dose of Formula I 125 mg/kg, 24 hpd, read-out: Tissue concentration, liver): 190 ± 81 ng/g | concentration at 2 h [6]: 2040 ± 883 ng/g | concentration at 12 h [7]: 357 ± 207 ng/g | concentration at 3 h [8]: 303 ± 94.4 ng/g | concentration at 12 h (lung, single oral dose of Formula I 125 mg/kg, 12 hpd, read-out: Tissue concentration, lung): 55.2 ± 64.6 ng/g | concentration at 2 h [9]: 240 ± 28.3 ng/g | concentration at 12 h [10]: 58.9 ± 14.7 ng/g | concentration at 3 h (spleen, single oral dose of Formula I 125 mg/kg, 3 hpd, read-out: Tissue concentration, spleen): 118 ± 10.8 ng/g | Tissue concentration, brain [11]: BQL | Tissue concentration, brain [12]: BQL | Tissue concentration, brain [13]: BQL | Tissue concentration, brain [14]: BQL | Tissue concentration, brain [15]: BQL | Tissue concentration, heart [11]: 89.9 ± 65.5 ng/g | Tissue concentration, heart [12]: BQL | Tissue concentration, heart [13]: 34.0 ± 39.9 ng/g | Tissue concentration, heart [14]: BQL | Tissue concentration, heart [15]: BQL | Tissue concentration, kidney [16]: above the limit of quantitation and AQL | Tissue concentration, kidney [17]: 14100 ± 5050^ ng/g | Tissue concentration, kidney [18]: 85.5 ± 18.1 ng/g | Tissue concentration, liver [19]: 13100 ± 3070 ng/g | Tissue concentration in Göttingen pig liver (Table 7) [20]: AQL | Tissue concentration, liver [20]: above the limit of quantitation and AQL | Tissue concentration, liver [21]: 190 ± 81.0 ng/g | Tissue concentration, lung [22]: 357 ± 207 ng/g | Tissue concentration, lung [23]: BQL | Tissue concentration, spleen [24]: 58.9 ± 14.7 ng/g | Tissue concentration, spleen [25]: 118 ± 10.8 ng/g | Tissue concentration, spleen [26]: BQL | Tissue concentration, spleen [27]: BQL
Structure (SMILES): CC1(O)[C@@H](O)[C@@H](COP(=O)(O)O)O[C@H]1n1ccc(=O)[nH]c1=S (stereo partly shown) [Formula III]

concentration at 12 h (125 mg/kg, liver, 12 hpd after oral dosing with Formula I, assumed tissue density of 1 g/mL, read-out: Concentration present in the liver): ~1000 nM | concentration at 12 h (lung, 25 mg/kg, lungs, 12 hrs post-dose after IV dosing with Formula I, read-out: Concentration maintained in lungs): ~1000 nM | concentration at 2 h (kidney, single intravenous bolus of Formula I 25 mg/kg, 2 hpd, read-out: Tissue concentration, kidney): 4410 ± 2040 ng/g | concentration at 3 h [1]: 613 ± 280 ng/g | concentration at 2 h [2]: 2610 ± 892 ng/g | concentration at 12 h [3]: 62.8 ± 126 ng/g | concentration at 3 h (liver, single oral dose of Formula I 125 mg/kg, 3 hpd, read-out: Tissue concentration in Göttingen pig liver (Table 7)): 12.9 ± 12.3 µM | concentration at 3 h (liver, single oral dose of Formula I 125 mg/kg, 3 hpd, read-out: Tissue concentration, liver): 6670 ± 6310 ng/g | concentration at 12 h [4]: 880 ± 1050 nM | concentration at 12 h [5]: 452 ± 541 ng/g | concentration at 2 h [6]: 3620 ± 2770 ng/g | concentration at 12 h [7]: 455 ± 263 ng/g | concentration at 3 h [8]: 170 ± 29.5 ng/g | concentration at 2 h [9]: 318 ± 181 ng/g | concentration at 12 h [10]: 47.5 ± 95 ng/g | Tissue concentration, brain [11]: BQL | Tissue concentration, brain [12]: BQL | Tissue concentration, brain [13]: not detected and BQL | Tissue concentration, brain [14]: BQL | Tissue concentration, brain [15]: BQL | Tissue concentration, heart [11]: 405 ± 149 ng/g | Tissue concentration, heart [12]: 140 ± 32.0 ng/g | Tissue concentration, heart [13]: 64.3 ± 75.4 ng/g | Tissue concentration, heart [14]: BQL | Tissue concentration, heart [15]: BQL | Tissue concentration, kidney [16]: 4410 ± 2040 ng/g | Tissue concentration, kidney (kidney, single intravenous bolus of Formula I 25 mg/kg, 12 hpd): not detectable and BQL | Tissue concentration, kidney [17]: 613 ± 280 ng/g | Tissue concentration, kidney (kidney, single oral dose of Formula I 125 mg/kg, 12 hpd): BQL | Tissue concentration, kidney [18]: BQL | Tissue concentration, liver [19]: 2610 ± 892 ng/g | Tissue concentration, liver (liver, single intravenous bolus of Formula I 25 mg/kg, 12 hpd): 62.8 ± 126 ng/g | Tissue concentration, liver [20]: 6670 ± 6310 ng/g | Tissue concentration, liver (liver, single oral dose of Formula I 125 mg/kg, 12 hpd): 452 ± 541 ng/g | Tissue concentration in Göttingen pig liver (Table 7) [21]: BQL | Tissue concentration, liver [21]: BQL | Tissue concentration, lung (lung, single intravenous bolus of Formula I 25 mg/kg, 2 hpd): 3620 ± 2770 ng/g | Tissue concentration, lung [22]: 455 ± 263 ng/g | Tissue concentration, lung (lung, single oral dose of Formula I 125 mg/kg, 3 hpd): 170 ± 29.5 ng/g | Tissue concentration, lung (lung, single oral dose of Formula I 125 mg/kg, 12 hpd): BQL | Tissue concentration, lung [23]: BQL | Tissue concentration, spleen (spleen, single intravenous bolus of Formula I 25 mg/kg, 2 hpd): 318 ± 181 ng/g | Tissue concentration, spleen [24]: 47.5 ± 95.0 ng/g | Tissue concentration, spleen [25]: not detected and BQL | Tissue concentration, spleen [26]: BQL | Tissue concentration, spleen [27]: BQL
Structure (SMILES): CC1(O)[C@@H](O)[C@@H](COP(=O)(O)OP(=O)(O)OP(=O)(O)O)O[C@H]1n1ccc(=O)[nH]c1=S (stereo partly shown) [Formula V]
